Results taken from US20250243171A1, “QUINAZOLINE COMPOUNDS FOR TREATMENT OF DISEASE” (Arthrosi Therapeutics, Inc., priority 2021, published 2025).
Where a name gives a salt, the structure may show the parent alone.

Tests used:
Test in all cases: EC50 assay: Ba/F3 stable cell proliferation (CCK-8, 72 h)
Type in all cases: cell-based
[1] = biological target: T1, Ba/F3 stable cells (Homo sapiens, UniProt P00533, DUP767-769, cells depend on it); conditions: Ba/F3-EGFR V769-D770insASV cells
T1 construct: EC50 Ba/F3-EGFR V769-D770insASV; other: Ba/F3-EGFR V769-D770insASV cells, 72 h, CCK-8
In short: (§1)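 Ba/F3 stable cells were seeded at 4,000 cells/90 μL/well in 96-well plates and held 2 h at 37° C. in 5% CO2, then given 10 μL of serially titrated compound (0.1% DMSO final). After 72 h at 37° C., CCK-8 reagent was added for 4 hours and absorbance read at 450 nm to derive EC50.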

[2] = biological target: T2, Ba/F3 stable cells (Homo sapiens, UniProt P00533, INS763FQEA, cells depend on it); conditions: Ba/F3-EGFR A763-Y764insFQEA cells
T2 construct: EC50 Ba/F3-EGFR A763-Y764insFQEA; other: Ba/F3-EGFR A763-Y764insFQEA cells, 72 h, CCK-8
In short: as §1

[3] = biological target: T3, Ba/F3 stable cells (Homo sapiens, UniProt P00533, T790M/L858R, cells depend on it); conditions: Ba/F3-EGFR L858R-T790M cells
T3 construct: EC50 Ba/F3-EGFR L858R-T790M; other: Ba/F3-EGFR L858R-T790M cells, 72 h, CCK-8
In short: as §1

[4] = biological target: T4, Ba/F3 stable cells (Homo sapiens, UniProt P04626, DUP772-775, cells depend on it); conditions: Ba/F3-HER2 A775-G776insYVMA cells
T4 construct: EC50 Ba/F3-HER2 A775-G776insYVMA; other: Ba/F3-HER2 A775-G776insYVMA cells, 72 h, CCK-8
In short: as §1

[5] = biological target: T5, Ba/F3 stable cells (Homo sapiens, UniProt P00533, DUP771-773, cells depend on it); conditions: Ba/F3-EGFR H773-V774insNPH cells
T5 construct: EC50 Ba/F3-EGFR H773-V774insNPH; other: Ba/F3-EGFR H773-V774insNPH cells, 72 h, CCK-8
In short: as §1

[6] = biological target: T6, Ba/F3 stable cells (Homo sapiens, UniProt P00533, DUP768-770, cells depend on it); conditions: Ba/F3-EGFR D770-N771insSVD cells
T6 construct: EC50 Ba/F3-EGFR D770-N771insSVD; other: Ba/F3-EGFR D770-N771insSVD cells, 72 h, CCK-8
In short: as §1

T1 sequence (P00533 with tags, fused parts or gaps DUP767-769): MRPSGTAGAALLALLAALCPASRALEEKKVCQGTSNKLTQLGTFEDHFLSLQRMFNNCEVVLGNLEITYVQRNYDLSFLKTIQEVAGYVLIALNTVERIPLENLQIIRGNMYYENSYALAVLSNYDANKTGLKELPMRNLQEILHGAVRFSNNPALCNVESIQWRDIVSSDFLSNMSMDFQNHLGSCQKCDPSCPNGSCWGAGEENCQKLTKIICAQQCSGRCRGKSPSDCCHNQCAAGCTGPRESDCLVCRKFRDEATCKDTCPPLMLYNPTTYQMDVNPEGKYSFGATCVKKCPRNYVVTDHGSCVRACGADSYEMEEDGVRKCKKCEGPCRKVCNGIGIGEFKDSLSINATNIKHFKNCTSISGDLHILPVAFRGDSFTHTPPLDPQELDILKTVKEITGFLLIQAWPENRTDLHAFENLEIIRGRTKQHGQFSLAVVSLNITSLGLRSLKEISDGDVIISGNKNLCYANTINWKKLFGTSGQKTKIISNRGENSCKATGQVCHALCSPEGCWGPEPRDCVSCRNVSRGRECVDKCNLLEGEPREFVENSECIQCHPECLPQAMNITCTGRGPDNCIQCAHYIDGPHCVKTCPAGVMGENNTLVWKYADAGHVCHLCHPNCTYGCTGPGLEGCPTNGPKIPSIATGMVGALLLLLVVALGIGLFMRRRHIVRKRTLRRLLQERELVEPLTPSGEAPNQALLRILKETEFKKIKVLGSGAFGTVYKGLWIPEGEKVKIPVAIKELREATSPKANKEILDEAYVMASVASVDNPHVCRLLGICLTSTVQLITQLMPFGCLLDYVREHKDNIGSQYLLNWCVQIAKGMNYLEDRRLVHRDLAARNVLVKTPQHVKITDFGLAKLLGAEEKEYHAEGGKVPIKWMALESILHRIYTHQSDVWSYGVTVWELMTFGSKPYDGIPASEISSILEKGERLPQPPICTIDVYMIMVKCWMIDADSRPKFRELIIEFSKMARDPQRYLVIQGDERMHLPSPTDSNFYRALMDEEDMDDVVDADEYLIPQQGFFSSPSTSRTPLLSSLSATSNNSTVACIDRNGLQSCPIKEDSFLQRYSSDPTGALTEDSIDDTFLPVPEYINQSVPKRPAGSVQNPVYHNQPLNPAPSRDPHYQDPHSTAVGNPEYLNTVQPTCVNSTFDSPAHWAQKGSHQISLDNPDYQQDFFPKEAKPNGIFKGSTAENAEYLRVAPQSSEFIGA
T2 sequence (P00533 with tags, fused parts or gaps INS763FQEA): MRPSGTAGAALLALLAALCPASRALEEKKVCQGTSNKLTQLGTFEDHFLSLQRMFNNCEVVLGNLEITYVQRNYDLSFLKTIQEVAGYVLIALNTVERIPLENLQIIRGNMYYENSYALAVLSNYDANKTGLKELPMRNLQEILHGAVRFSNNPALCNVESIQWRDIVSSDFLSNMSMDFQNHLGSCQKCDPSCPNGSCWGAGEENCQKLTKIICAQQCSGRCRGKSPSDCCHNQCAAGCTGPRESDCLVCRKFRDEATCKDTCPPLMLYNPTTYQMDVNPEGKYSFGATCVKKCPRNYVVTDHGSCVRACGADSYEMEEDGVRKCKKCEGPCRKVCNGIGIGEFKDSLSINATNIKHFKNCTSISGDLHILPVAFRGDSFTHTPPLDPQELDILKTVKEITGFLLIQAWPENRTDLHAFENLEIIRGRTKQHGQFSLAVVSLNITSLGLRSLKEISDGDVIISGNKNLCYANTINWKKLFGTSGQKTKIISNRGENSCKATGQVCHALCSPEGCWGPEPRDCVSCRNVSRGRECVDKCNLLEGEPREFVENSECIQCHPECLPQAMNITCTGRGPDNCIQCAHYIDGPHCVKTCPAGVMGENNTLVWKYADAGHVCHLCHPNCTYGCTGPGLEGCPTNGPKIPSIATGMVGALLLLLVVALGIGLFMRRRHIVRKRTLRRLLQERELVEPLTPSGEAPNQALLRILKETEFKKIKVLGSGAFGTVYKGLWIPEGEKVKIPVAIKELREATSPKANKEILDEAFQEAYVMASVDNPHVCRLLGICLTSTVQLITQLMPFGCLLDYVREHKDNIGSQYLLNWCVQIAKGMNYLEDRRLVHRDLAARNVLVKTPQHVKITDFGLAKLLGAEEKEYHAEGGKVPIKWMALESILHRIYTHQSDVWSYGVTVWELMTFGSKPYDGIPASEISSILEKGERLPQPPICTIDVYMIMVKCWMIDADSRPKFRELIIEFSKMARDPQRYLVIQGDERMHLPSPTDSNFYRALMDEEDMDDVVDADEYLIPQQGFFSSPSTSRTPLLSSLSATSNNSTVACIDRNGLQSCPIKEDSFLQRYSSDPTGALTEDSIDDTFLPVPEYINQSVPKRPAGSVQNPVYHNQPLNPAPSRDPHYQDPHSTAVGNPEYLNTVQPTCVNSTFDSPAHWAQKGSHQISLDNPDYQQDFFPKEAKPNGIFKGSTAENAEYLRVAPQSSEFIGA
T4 sequence (P04626 with tags, fused parts or gaps DUP772-775): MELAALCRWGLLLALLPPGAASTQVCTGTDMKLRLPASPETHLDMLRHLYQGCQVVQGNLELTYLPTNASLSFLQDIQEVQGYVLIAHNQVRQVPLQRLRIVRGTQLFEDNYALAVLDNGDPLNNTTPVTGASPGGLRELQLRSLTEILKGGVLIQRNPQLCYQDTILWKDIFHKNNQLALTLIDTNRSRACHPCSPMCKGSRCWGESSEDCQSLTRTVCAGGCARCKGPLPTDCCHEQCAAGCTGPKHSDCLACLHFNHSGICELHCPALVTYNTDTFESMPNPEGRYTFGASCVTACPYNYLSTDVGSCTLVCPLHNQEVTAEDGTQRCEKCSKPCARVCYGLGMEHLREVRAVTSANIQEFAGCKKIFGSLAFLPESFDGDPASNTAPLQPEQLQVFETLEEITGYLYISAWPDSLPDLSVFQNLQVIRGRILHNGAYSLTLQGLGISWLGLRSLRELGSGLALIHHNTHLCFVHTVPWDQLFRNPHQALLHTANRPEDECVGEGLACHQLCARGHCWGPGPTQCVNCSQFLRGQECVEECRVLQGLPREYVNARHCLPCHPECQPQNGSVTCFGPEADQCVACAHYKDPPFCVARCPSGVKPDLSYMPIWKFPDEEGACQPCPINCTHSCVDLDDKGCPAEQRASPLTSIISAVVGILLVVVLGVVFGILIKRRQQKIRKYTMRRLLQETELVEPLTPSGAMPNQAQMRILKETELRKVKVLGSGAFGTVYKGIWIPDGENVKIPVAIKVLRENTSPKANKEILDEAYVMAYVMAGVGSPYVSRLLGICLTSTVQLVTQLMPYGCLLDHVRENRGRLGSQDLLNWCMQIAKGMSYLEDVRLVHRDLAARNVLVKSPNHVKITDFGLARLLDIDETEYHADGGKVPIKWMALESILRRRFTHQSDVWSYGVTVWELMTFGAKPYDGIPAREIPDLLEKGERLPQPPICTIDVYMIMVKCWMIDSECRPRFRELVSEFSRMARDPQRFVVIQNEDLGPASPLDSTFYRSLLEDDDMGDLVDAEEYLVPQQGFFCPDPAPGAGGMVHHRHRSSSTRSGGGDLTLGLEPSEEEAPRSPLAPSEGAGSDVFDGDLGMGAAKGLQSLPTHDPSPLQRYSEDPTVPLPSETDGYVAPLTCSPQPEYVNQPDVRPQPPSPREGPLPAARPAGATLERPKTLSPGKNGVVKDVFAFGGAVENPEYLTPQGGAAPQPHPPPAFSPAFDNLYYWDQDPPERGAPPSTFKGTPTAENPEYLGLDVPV
T6 sequence (P00533 with tags, fused parts or gaps DUP768-770): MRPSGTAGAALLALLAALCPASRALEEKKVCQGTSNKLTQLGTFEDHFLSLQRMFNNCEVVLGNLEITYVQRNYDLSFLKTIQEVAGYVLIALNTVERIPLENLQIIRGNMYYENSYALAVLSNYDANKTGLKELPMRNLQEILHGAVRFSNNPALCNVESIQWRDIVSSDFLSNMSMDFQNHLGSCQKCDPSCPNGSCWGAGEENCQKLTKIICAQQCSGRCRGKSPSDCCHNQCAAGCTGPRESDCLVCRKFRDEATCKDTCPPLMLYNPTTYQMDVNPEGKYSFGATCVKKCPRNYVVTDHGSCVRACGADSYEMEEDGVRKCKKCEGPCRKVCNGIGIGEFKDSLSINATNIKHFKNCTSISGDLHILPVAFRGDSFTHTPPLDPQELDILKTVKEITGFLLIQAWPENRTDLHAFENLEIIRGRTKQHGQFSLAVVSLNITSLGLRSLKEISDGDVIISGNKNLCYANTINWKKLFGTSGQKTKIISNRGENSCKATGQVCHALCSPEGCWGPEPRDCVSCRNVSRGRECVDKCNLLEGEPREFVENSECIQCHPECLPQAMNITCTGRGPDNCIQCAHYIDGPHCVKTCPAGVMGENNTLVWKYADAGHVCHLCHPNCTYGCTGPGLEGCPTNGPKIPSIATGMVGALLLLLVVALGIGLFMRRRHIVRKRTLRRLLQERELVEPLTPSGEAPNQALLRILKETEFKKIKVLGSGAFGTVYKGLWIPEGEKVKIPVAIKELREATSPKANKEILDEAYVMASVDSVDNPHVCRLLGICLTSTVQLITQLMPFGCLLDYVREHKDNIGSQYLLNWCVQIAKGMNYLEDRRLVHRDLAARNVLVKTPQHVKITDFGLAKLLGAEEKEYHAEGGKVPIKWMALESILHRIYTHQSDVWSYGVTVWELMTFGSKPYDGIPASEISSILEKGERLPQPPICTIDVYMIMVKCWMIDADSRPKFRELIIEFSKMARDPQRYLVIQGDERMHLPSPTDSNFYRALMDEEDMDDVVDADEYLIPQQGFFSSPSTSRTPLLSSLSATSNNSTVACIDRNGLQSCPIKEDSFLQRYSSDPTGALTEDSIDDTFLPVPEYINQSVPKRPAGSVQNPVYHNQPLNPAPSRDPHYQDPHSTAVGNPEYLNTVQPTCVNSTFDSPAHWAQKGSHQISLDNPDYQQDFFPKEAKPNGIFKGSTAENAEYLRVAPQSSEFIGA

C=CC(=O)N1CCC(Oc2c(OC)cc3ncnc4c3c2N(C)C(=O)N4c2ccc(Cl)c(Cl)c2F)CC1 [Compound 200, 9-((1-acryloylpiperidin-4-yl)oxy)-3-(3,4-dichloro-2-fluorophenyl)-8-methoxy-1-methyl-1H-pyrimido[4,5,6-de]quinazolin-2(3H)-one]
EC50 [1]: 200 to 1000 nM | EC50 [2]: ≤ 200 nM | EC50 [3]: > 1000 nM | EC50 [4]: > 1000 nM | EC50 [5]: 200 to 1000 nM | EC50 [6]: > 1000 nM

C=CC(=O)N1CCC(Oc2c(OC)cc3ncnc4c3c2NC(=O)N4c2ccc(Cl)c(Cl)c2F)C1 (stereo not drawn) [Compound 205, 9-((1-acryloylpyrrolidin-3-yl)oxy)-3-(3,4-dichloro-2-fluorophenyl)-8-methoxy-1H-pyrimido[4,5,6-de]quinazolin-2(3H)-one]
EC50 [1]: > 1000 nM | EC50 [2]: 200 to 1000 nM | EC50 [3]: > 1000 nM | EC50 [4]: > 1000 nM | EC50 [5]: > 1000 nM | EC50 [6]: > 1000 nM

C=CC(=O)N1CC=C(c2c(OC)cc3ncnc4c3c2N(C)C(=O)N4c2ccc(Cl)c(Cl)c2F)CC1 [Compound 206, 9-(1-acryloyl-1,2,3,6-tetrahydropyridin-4-yl)-3-(3,4-dichloro-2-fluorophenyl)-8-methoxy-1-methyl-1H-pyrimido[4,5,6-de]quinazolin-2(3H)-one]
EC50 [1]: 200 to 1000 nM | EC50 [2]: ≤ 200 nM | EC50 [3]: > 1000 nM | EC50 [4]: 200 to 1000 nM | EC50 [5]: > 1000 nM | EC50 [6]: > 1000 nM

COc1cc2ncnc(Nc3ccc(Cl)c(Cl)c3F)c2c([N+](=O)[O-])c1OC1CCNCC1 [Compound 207, N-(3,4-dichloro-2-fluorophenyl)-7-methoxy-5-nitro-6-(piperidin-4-yloxy)quinazolin-4-amine hydrochloride]
EC50 [1]: 200 to 1000 nM | EC50 [2]: ≤ 200 nM | EC50 [3]: 200 to 1000 nM | EC50 [4]: 200 to 1000 nM | EC50 [5]: 200 to 1000 nM | EC50 [6]: > 1000 nM

C=CC(=O)N1CCC(Oc2c(OC)cc3ncnc(Nc4ccc(Cl)c(Cl)c4F)c3c2[N+](=O)[O-])CC1 [Compound 208, 1-(4-((4-((3,4-dichloro-2-fluorophenyl)amino)-7-methoxy-5-nitroquinazolin-6-yl)oxy)piperidin-1-yl)prop-2-en-1-one]
EC50 [1]: > 1000 nM | EC50 [2]: 200 to 1000 nM | EC50 [3]: > 1000 nM | EC50 [4]: > 1000 nM | EC50 [5]: > 1000 nM | EC50 [6]: > 1000 nM

C=CC(=O)N1CCC(Oc2c(OC)cc3ncnc4c3c2NC(=O)N4c2ccc(Cl)c(Cl)c2)CC1 [Compound 215, 9-((1-acryloylpiperidin-4-yl)oxy)-3-(3,4-dichlorophenyl)-8-methoxy-1H-pyrimido[4,5,6-de]quinazolin-2(3H)-one]
EC50 [1]: > 1000 nM | EC50 [2]: ≤ 200 nM | EC50 [3]: > 1000 nM | EC50 [4]: > 1000 nM | EC50 [5]: > 1000 nM | EC50 [6]: > 1000 nM

C=CC(=O)N1CC(Oc2c(OC)cc3ncnc4c3c2NC(=O)N4c2ccc(Cl)c(Cl)c2F)C1 [Compound 216, 9-((1-acryloylazetidin-3-yl)oxy)-3-(3,4-dichloro-2-fluorophenyl)-8-methoxy-1H-pyrimido[4,5,6-de]quinazolin-2(3H)-one]
EC50 [1]: ≤ 200 nM | EC50 [2]: ≤ 200 nM | EC50 [3]: ≤ 200 nM | EC50 [4]: > 1000 nM | EC50 [5]: ≤ 200 nM | EC50 [6]: ≤ 200 nM

C=CC(=O)N1CCC(Oc2c(OC)cc3ncnc4c3c2C=C(C)N4c2ccc(Cl)c(Cl)c2F)CC1 [Compound 217, 1-(4-((4-(3,4-dichloro-2-fluorophenyl)-8-methoxy-5-methyl-4H-pyrido[2,3,4-de]quinazolin-7-yl)oxy)piperidin-1yl)prop-2-en-1-one]
EC50 [1]: ≤ 200 nM | EC50 [2]: ≤ 200 nM | EC50 [3]: 200 to 1000 nM | EC50 [4]: > 1000 nM | EC50 [5]: 200 to 1000 nM | EC50 [6]: 200 to 1000 nM

C=CC(=O)N1CCC(Oc2c(OC)cc3ncnc4c3c2C=CN4c2ccc(Cl)c(Cl)c2F)CC1 [Compound 218, 1-(4-((4-(3,4-dichloro-2-fluorophenyl)-8-methoxy-4H-pyrido[2,3,4-de]quinazolin-7-yl)oxy)piperidin-1-yl)prop-2-en-1-one]
EC50 [1]: ≤ 200 nM | EC50 [2]: ≤ 200 nM | EC50 [3]: 200 to 1000 nM | EC50 [4]: > 1000 nM | EC50 [5]: ≤ 200 nM | EC50 [6]: 200 to 1000 nM

C=CS(=O)(=O)N1CCC(Oc2c(OC)cc3ncnc4c3c2NC(=O)N4c2ccc(Cl)c(Cl)c2F)CC1 [Compound 225, 3-(3,4-dichloro-2-fluorophenyl)-8-methoxy-9-((1-(vinylsulfonyl)piperidin-4-yl)oxy)-1H-pyrimido[4,5,6-de]quinazolin-2(3H)-one]
EC50 [1]: ≤ 200 nM | EC50 [2]: ≤ 200 nM | EC50 [3]: ≤ 200 nM | EC50 [4]: > 1000 nM | EC50 [5]: ≤ 200 nM | EC50 [6]: ≤ 200 nM
